The values that follow come from patent US20250092058A1 (priority 2018, published 2025).

The test system of one data set is HT-3. Briefly: MTT assay HT-3. Format: cell-based, human. The settings on record: Table 7; HT-3. The procedure: MTT assays. […] Viable cells (2500 cells per well) were plated in each well in 96-well plates. After an overnight incubation, cells were treated with and without relevant drugs alone and in combination, respectively, at various concentrations and incubated for 72 hours. MTT, a colorimetric substrate, was added to a final concentration of 0.4 mg/ml to each well. Cells in 96-well plates were further incubated in a 5% CO2 incubator at 37° C. for 4 hours, and then the medium was aspirated. The MTT metabolic product formazan was solubilized by adding 200 ul of DMSO to each well. Absorbance in the relevant wells was measured at 570 nm using an Ultra Microplate Reader (Bio-Tek Instruments). Each experiment was performed at least in triplicate. IC50/EC50 values were calculated from a series of drug dose ranges for each analyzed compound, using GraphPad Prism 6 (GraphPad Software, Inc., La Jolla, CA).
The inhibition of cell growth and viability in various cancer cell types were tested using MTT assay for references.
Background: Tetrazolium assays rely on reduction of a dye to a coloured formazan, in cell work by metabolically active cells.

The subject of a further data set is Y79. Briefly: MTT assay Y79. The data set is classed as cell-based. The note with it: Table 7. The procedure:
(§1) MTT assays. […] Each experiment was performed at least in triplicate.

For the next data set, the system named is Wer 127. The data set can be described thus: MTT assay Wer 127. Format: cell-based. The note with it: Table 7. The procedure: as §1
A further data set has as its system CRC PDX27454 tumors. The note with it: mouse, in vivo. As to the method:
Colorectal cancer (CRC) patient-derived xenograft (PDX) models were used to evaluate their in vivo antitumor activity. […] Treatments were administered weekly for four weeks on days 0, 7, 14 and 21 and tumor volumes and individual body weights were monitored.
Human xenograft tumors used. In this invention disclose, human SW620 (colorectal), HT29 (colorectal) and HT-3 (retinoblastoma) cancer cell line-established xenograft tumors were used. Human tumor cell line-derived xenograft tumors are initially established by subcutaneously injecting 2-5×10^6 cultured cancer cells in a volume of 100-150 p L medium into the flank area of severe combined immunodeficiency (SCID) mice. The derived tumors are then passed a couple of generations in mice by transplanting 30-50 mg non-necrotic tumor mass via a trocar for experiments or maintenance. […] PDX tumors were originally established on severe Combined Immunodeficiency (SCID) mice from pancreatic and colorectal cancer patient tumor tissues obtained from metastatic sites of the disease in the clinic.
Specifically, PDX tumors were originally established on severe Combined Immunodeficiency (SCID) mice from pancreatic and colorectal cancer patient tumor tissues obtained from metastatic sites of the disease in the clinic. […] The vehicle is the same think aqueous suspension without drug. Experimental SCID mice were subcutaneously implanted with 30-40 mg individual PDX tumors (isolated from maintenance mice) at the flank area for PDX27454 of SCID mice. Treatment with vehicle or a drug of 7Q-series (2) was initiated 7-14 days after the transplanted tumors reached 100-200 mm^3 (designated day 0). The animal model of PDX tumors was orally treated weekly for 4 times (one cycle/course, as shown with black arrows) or only one time drug administration.

The test system of a further data set is HeLa. Format: cell-based, human.
The subject of another data set is HCT116. Format: cell-based, human.
In a further data set the test system is HepG2. Format: cell-based, human.
A further data set deals with A549. The data set is classed as cell-based, human.

For `CC[C@@]1(O)C(=O)OCc2c1cc1n(c2=O)Cc2c-1nc1cc3c(cc1c2CCc1ccc(F)cc1)OCO3` [FL7s-4], the figures for the IC50/EC50 in the data set with HT-3, with Y79 and with Wer 127 were 4.7 nM, 0.62 nM and 49.46 nM, respectively.

For `CC[C@@]1(O)C(=O)OCc2c1cc1n(c2=O)Cc2c-1nc1cc3c(cc1c2CCc1cc(F)c(F)c(F)c1)OCO3` [FL7s-10], the values for the IC50/EC50 in the data set on HT-3, with Y79 and in the data set with Wer 127 were 3.44 nM, 1.15 nM and 12.26 nM, respectively.

On to `CC[C@@]1(O)C(=O)OCc2c1cc1n(c2=O)Cc2c-1nc1cc3c(cc1c2CCc1ccc(F)c(F)c1)OCO3` [FL7s-9], for which the IC50/EC50 is given as 3.42 nM with HT-3, 1 nM in the data set on Y79 and 1.86 nM with Wer 127.

Take `CC[C@@]1(O)C(=O)OCc2c1cc1n(c2=O)Cc2c-1nc1cc3c(cc1c2-c1cccc(C(F)(F)F)c1)OCO3` [Compound 7Q35]: in the data set on CRC PDX27454 tumors, the “antitumor activity, 7Q-series (2)” value is “much higher antitumor activity than the other compounds in this 7Q-series (2)” and the “effect of oral instead of i.p. administration on antitumor efficacy” value is reported as “decreases 7Q35 antitumor efficacy”.

In the case of `CC[C@@]1(O)C(=O)OCc2c1cc1n(c2=O)Cc2c-1nc1cc3c(cc1c2/C=C/C=C/c1ccccc1)OCO3` [FL7s-1], the values for the IC50/EC50 in the data set on HT-3, in the data set on Y79 and in the data set on Wer 127 were 11.9 nM, 4.16 nM and >500 nM, respectively.

Turning to `CC[C@@]1(O)C(=O)OCc2c1cc1n(c2=O)Cc2c-1nc1cc3c(cc1c2CCCCc1ccccc1)OCO3` [FL7s-5], the results for the IC50/EC50 in the data set with HT-3, in the data set with Y79 and in the data set with Wer 127 were 3.58 nM, 1.11 nM and 381.2 nM, respectively.

In the case of `CC[C@@]1(O)C(=O)OCc2c1cc1n(c2=O)Cc2c-1nc1cc3c(cc1c2-c1ccc(C)c(F)c1)OCO3` [Compound 7d], the IC50 – broadly, the concentration that gives 50% inhibition – in the data set on HeLa was 22.1 ± 7.3 nM; in the data set on HCT116, 50.3 ± 14.6 nM; in the data set with HepG2, 36.9 ± 1.2 nM; in the data set on A549, 48.2 ± 7.9 nM.

Consider `CC[C@@]1(O)C(=O)OCc2c1cc1n(c2=O)Cc2c-1nc1cc3c(cc1c2CCCCc1ccc(OC)cc1)OCO3` [FL7s-6], for which the IC50/EC50 in the data set on HT-3 worked out at 7.7 nM; with Y79, 1.52 nM; in the data set on Wer 127, 6.48 nM.

With `CC[C@@]1(O)C(=O)OCc2c1cc1n(c2=O)Cc2c-1nc1cc3c(cc1c2-c1cccc(OC(F)(F)F)c1)OCO3` [Compound 71], in the data set on CRC PDX27454 tumors, the antitumor efficacy entry is “no more effective than FL118 in vivo”. For the same compound, the concentration for half-maximal inhibition (IC50) with HeLa is 12.8 ± 7.4 nM; in the data set on HCT116, 14.6 ± 6.7 nM; in the data set with HepG2 it was 16.8 ± 2.3 nM; with A549 it was 26.4 ± 7.5 nM.

As for `CC[C@@]1(O)C(=O)OCc2c1cc1n(c2=O)Cc2c-1nc1cc3c(cc1c2-c1ccc(F)c(OC)c1)OCO3` [Compound 7Q32], in the data set with CRC PDX27454 tumors, the “antitumor activity, 7Q-series (2)” value was “much higher antitumor activity than the other compounds in this 7Q-series (2)” and the “toxicity on i.p. versus oral administration” value is given as “increases 7Q32 toxicity to animals in comparison with oral administration”.

As to `CCOc1ccc(-c2c3c(nc4cc5c(cc24)OCO5)-c2cc4c(c(=O)n2C3)COC(=O)[C@]4(O)CC)cc1F` [Compound 7j], the half-inhibitory concentration (IC50) with HeLa came out at 42.2 ± 3.6 nM; in the data set with HCT116 it was 399 ± 19.8 nM; in the data set on HepG2, 206 ± 38.2 nM; with A549, 352 ± 10.3 nM.

`CC[C@@]1(O)C(=O)OCc2c1cc1n(c2=O)Cc2c-1nc1cc3c(cc1c2-c1cc(F)cc(OC)c1)OCO3` [Compound 7i]: the IC50 was determined as 124 ± 12.1 nM in the data set with HeLa, 66.9 ± 6.5 nM in the data set on HCT116, 48.5 ± 2.3 nM in the data set on HepG2 and 15.5 ± 2.2 nM with A549.

As to `CC[C@@]1(O)C(=O)OCc2c1cc1n(c2=O)Cc2c-1nc1cc3c(cc1c2C=Cc1ccccc1)OCO3` [FL7-5, 20 (S)-7-cinnamenyl-10,11-methylenedioxy-camptothecin], the IC50/EC50 with HT-3 was determined as 5.89 nM; in the data set on Y79 it was 2.51 nM; in the data set on Wer 127, 5.13 nM.

As for `CC[C@@]1(O)C(=O)OCc2c1cc1n(c2=O)Cc2c-1nc1cc3c(cc1c2-c1ccc(F)c(C)c1)OCO3` [Compound 7e], the IC50 with HeLa worked out at 36.6 ± 4.5 nM; in the data set with HCT116, 25.5 ± 3.2 nM; in the data set on HepG2 it was 36.7 ± 2.6 nM; in the data set on A549, 29.4 ± 4.1 nM.

For the compound `CC[C@@]1(O)C(=O)OCc2c1cc1n(c2=O)Cc2c-1nc1cc3c(cc1c2CCc1ccccc1)OCO3` [FL7-14, 20 (S)-7-phenethyl-10,11-methylenedioxy-camptothecin], the IC50/EC50 turned out to be 36.9 nM with HT-3, 8.39 nM in the data set with Y79 and 4.1 nM with Wer 127.

On to `CC[C@@]1(O)C(=O)OCc2c1cc1n(c2=O)Cc2c-1nc1cc3c(cc1c2-c1cc(F)cc(F)c1)OCO3` [Compound 7c], for which the antitumor efficacy result in the data set on CRC PDX27454 tumors is given as “high antitumor efficacy”. In addition, in the data set with CRC PDX27454 tumors (ip), the mouse body weights result is “stable mouse body weights”. The IC50 is 35.6 ± 5.8 nM in the data set on HeLa, 48 ± 4.4 nM in the data set on HCT116, 41.4 ± 5.9 nM in the data set on HepG2 and 49.5 ± 10 nM with A549.

Consider `CC[C@@]1(O)C(=O)OCc2c1cc1n(c2=O)Cc2c-1nc1cc3c(cc1c2-c1ccc(OC)c(F)c1)OCO3` [Compound 7g], for which the half-inhibitory concentration (IC50) turned out to be 24.3 ± 4.4 nM in the data set on HeLa, 43.2 ± 15.8 nM in the data set on HCT116, 172 ± 5.3 nM with HepG2 and 70.2 ± 9.6 nM with A549.

For `CC[C@@]1(O)C(=O)OCc2c1cc1n(c2=O)Cc2c-1nc1cc3c(cc1c2-c1ccc(OC)c(F)c1)OCO3` [Compound 7Q31], in the data set with CRC PDX27454 tumors, the “antitumor activity, 7Q-series (2)” value was “much higher antitumor activity than the other compounds in this 7Q-series (2)” and the “effect of oral instead of i.p. administration on antitumor efficacy” value is recorded as “decreases 7Q28 antitumor efficacy”.

Consider `CCC1(O)C(=O)OCc2c1cc1n(c2=O)Cc2c-1nc1cc3c(cc1c2C=CC=Cc1ccc(OC)cc1)OCO3` (stereo not shown) [FL7s-2], for which the results for the IC50/EC50 in the data set with HT-3, in the data set with Y79 and in the data set on Wer 127 were 113.2 nM, 41.48 nM and >500 nM, respectively.

Consider `CC[C@@]1(O)C(=O)OCc2c1cc1n(c2=O)Cc2c-1nc1cc3c(cc1c2-c1ccc(OC(F)(F)F)cc1)OCO3` [Compound 7m], for which the IC50 in the data set on HeLa stood at 398 ± 2.6 nM; in the data set with HCT116 it was 196 ± 19.1 nM; in the data set with HepG2, 229 ± 5.8 nM; with A549 it was 87.3 ± 14.4 nM.

`CC[C@@]1(O)C(=O)OCc2c1cc1n(c2=O)Cc2c-1nc1cc3c(cc1c2-c1cccc(OC(F)(F)F)c1)OCO3` [Compound 7Q36]: in the data set with CRC PDX27454 tumors, the “antitumor activity, 7Q-series (2)” value is reported as “much higher antitumor activity than the other compounds in this 7Q-series (2)” and the “loss of antitumor efficacy on oral administration” value was > 80%.

For the compound `CC[C@@]1(O)C(=O)OCc2c1cc1n(c2=O)Cc2c-1nc1cc3c(cc1c2CCc1ccccc1F)OCO3` [FL7s-8], the IC50/EC50 is recorded as 4.88 nM with HT-3, 1.56 nM in the data set on Y79 and 28.99 nM in the data set on Wer 127.

For `CC[C@@]1(O)C(=O)OCc2c1cc1n(c2=O)Cc2c-1nc1cc3c(cc1c2-c1cc(C)cc(F)c1)OCO3` [Compound 7f], the IC50 in the data set with HeLa was determined as 56.5 ± 2.8 nM; in the data set with HCT116 it was 41.4 ± 5.9 nM; in the data set with HepG2, 56 ± 0.3 nM; with A549, 30.6 ± 3.8 nM.

On to `CC[C@@]1(O)C(=O)OCc2c1cc1n(c2=O)Cc2c-1nc1cc3c(cc1c2-c1ccc(F)c(F)c1)OCO3` [Compound 7n], for which the IC50 in the data set on HeLa turned out to be 39.7 ± 2.3 nM; in the data set with HCT116, 48.8 ± 3.2 nM; in the data set on HepG2 it was 49.9 ± 3.5 nM; with A549, 9 nM.

Regarding `CC[C@@]1(O)C(=O)OCc2c1cc1n(c2=O)Cc2c-1nc1cc3c(cc1c2-c1cccc(F)c1)OCO3` [Compound 7a], the IC50 came out at 34.7 ± 6.5 nM with HeLa, 150 ± 2.5 nM in the data set on HCT116, 155 ± 35.1 nM with HepG2 and 40 ± 0.3 nM in the data set with A549.

For the compound `CC[C@@]1(O)C(=O)OCc2c1cc1n(c2=O)Cc2c-1nc1cc3c(cc1c2-c1cccc(C(F)(F)F)c1)OCO3` [Compound 7k], the half-maximal inhibitory concentration (IC50) in the data set with HeLa turned out to be 20.2 ± 3 nM; with HCT116, 73.6 ± 7.1 nM; in the data set with HepG2, 35 ± 6.6 nM; in the data set on A549, 82.9 ± 5.6 nM.

Take `CC[C@@]1(O)C(=O)OCc2c1cc1n(c2=O)Cc2c-1nc1cc3c(cc1c2-c1ccc(C)c(F)c1)OCO3` [Compound 7Q28]: in the data set with CRC PDX27454 tumors, the “antitumor activity, 7Q-series (2)” value is reported as “much higher antitumor activity than the other compounds in this 7Q-series (2)” and the “effect of oral instead of i.p. administration on antitumor efficacy” value was “decreases 7Q28 antitumor efficacy”.
